Data from patent US20110130447A1, “Production of hop extracts having oestrogenic and antiproliferative bioactivity” (priority 2004, published 2011).
One block for each molecule: values may come before it.

Key:
[1] = cited from earlier work; for oestrogenic activity: Milligan et al., 1999, 2000
human oestrogen receptor = biological target: T1, human oestrogen receptor (Homo sapiens, UniProt P03372); experiment: Oestrogen-inducible yeast screen (Lac-Z reporter); type: cell-based; settings: FIG. 4, relative to 8-prenylnaringenin
T1 construct: expressed in transfected cells; host or cells: Saccharomyces cerevisiae
Method: The yeasts were grown in a medium containing increasing concentrations of 17β-estradiol (positive control), 8-prenylnaringenin (8-PN), 8-isopentylnaringenin (8PN-H2) or dihydro-isoxanthohumol (IsoX-H2). Expression of the Lac-Z reporter gene was spectrophotometrically measured and quantified.

[2] = Bioavailability and stability of 8-isopentylnaringenin compared with 8-prenylnaringenin
[3] = system: oestrogen-responsive MCF-7 breast cancer cells; experiment: Bioassay of 8-prenylnaringenin-induced proliferation of MCF-7 cells and its inhibition by xanthohumol; type: cell-based
Method: A bioassay was developed to probe proliferation of oestrogen-dependent cancer cells by 8-prenylnaringenin and to determine concentrations of xanthohumol required to inhibit this 8-prenylnaringenin-induced proliferation. Thereto, oestrogen-responsive MCF-7 breast cancer cells were grown in 96-well plates in the presence of a fixed and growth-stimulatory concentration of 8-prenylnaringenin and varying concentrations of xanthohumol. For each concentration of 8-prenylnaringenin (1 nM, 10 nM, and 100 nM), the concentrations of xanthohumol were 0 μM, 0.1 μM, 1 μM, 5 μM, 10 μM and 25 μM, respectively.

[4] = Milligan et al., 2002; cited from earlier work
[5] = system: mouse mammary gland organ culture; settings: Gerhauser et al., 2002; cited from earlier work
cyclooxygenase-1 = biological target: T2, cyclooxygenase-1 (Ovis aries, UniProt P05979); settings: Gerhauser et al., 2002; cited from earlier work
T2 sequence (P05979 25-600): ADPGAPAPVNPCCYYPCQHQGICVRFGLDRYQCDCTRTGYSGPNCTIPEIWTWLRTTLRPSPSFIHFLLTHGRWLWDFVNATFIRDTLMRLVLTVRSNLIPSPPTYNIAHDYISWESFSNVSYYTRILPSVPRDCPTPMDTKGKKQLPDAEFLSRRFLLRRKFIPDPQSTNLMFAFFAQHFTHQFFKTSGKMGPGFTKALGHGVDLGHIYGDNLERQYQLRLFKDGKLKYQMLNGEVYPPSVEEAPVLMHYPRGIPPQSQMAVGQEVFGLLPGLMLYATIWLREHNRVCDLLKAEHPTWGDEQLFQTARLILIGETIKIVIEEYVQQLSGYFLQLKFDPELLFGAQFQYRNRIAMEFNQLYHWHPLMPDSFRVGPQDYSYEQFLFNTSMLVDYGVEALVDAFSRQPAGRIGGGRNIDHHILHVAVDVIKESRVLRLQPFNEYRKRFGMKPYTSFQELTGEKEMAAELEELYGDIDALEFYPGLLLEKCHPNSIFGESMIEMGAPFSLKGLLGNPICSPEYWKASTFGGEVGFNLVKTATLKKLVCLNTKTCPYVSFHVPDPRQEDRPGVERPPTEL

cyclooxygenase-2 = biological target: T3, cyclooxygenase-2 (Homo sapiens, UniProt P35354); settings: Gerhauser et al., 2002; cited from earlier work
T3 sequence (P35354 18-604): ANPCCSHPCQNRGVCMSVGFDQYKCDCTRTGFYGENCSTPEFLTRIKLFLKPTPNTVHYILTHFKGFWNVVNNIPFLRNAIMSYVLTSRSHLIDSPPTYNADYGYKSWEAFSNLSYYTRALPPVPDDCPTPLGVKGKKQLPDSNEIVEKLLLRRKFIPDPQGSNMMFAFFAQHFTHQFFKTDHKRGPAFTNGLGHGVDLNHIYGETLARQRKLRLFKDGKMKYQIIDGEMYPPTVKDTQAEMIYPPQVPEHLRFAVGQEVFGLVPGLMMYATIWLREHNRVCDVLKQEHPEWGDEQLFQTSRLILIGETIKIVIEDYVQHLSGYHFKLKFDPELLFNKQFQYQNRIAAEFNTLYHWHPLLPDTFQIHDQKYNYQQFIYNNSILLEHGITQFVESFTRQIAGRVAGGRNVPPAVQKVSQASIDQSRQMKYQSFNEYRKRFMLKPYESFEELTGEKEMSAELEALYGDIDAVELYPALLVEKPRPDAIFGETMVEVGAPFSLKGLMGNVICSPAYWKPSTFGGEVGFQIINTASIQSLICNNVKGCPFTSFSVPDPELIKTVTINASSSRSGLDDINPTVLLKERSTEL

T1 sequence (P03372 whole entry): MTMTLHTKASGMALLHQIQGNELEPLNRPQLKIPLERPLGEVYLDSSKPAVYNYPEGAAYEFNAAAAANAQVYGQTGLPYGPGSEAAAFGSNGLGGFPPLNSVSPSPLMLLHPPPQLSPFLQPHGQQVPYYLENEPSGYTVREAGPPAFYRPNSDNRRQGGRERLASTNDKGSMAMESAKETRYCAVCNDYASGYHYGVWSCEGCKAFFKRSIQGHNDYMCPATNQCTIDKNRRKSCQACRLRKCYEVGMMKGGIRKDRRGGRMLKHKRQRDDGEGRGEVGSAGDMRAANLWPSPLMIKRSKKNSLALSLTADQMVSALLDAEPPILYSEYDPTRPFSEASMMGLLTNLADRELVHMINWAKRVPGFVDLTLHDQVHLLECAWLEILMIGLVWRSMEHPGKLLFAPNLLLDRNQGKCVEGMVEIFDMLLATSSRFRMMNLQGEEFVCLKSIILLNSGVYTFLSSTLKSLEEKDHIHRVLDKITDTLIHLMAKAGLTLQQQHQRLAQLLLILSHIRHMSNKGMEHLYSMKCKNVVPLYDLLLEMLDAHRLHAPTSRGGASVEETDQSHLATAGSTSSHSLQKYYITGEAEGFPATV

Structure (SMILES): CC(C)=CCc1c(O)c(CC=C(C)C)c2c(c1O)C(=O)C[C@@H](c1ccc(O)cc1)O2 [6,8-diprenylnaringenin]
- oestrogenic activity [1]: only weakly oestrogenic

Structure (SMILES): CC(C)=CCc1c(O)cc2c(c1O)C(=O)C[C@@H](c1ccc(O)cc1)O2 [6-prenylnaringenin]
- oestrogenic activity [1]: only weakly oestrogenic

Structure (SMILES): CC(C)=CCC/C(C)=C/Cc1c(O)cc(O)c2c1O[C@H](c1ccc(O)cc1)CC2=O [8-geranylnarin-genin]
- oestrogenic activity [1]: only weakly oestrogenic

- oestrogenic activity, times weaker than 8-prenylnaringenin (human oestrogen receptor): 3-4 times
- stability compared to 8-prenylnaringenin (less easily metabolised) [2]: better stability
Structure (SMILES): CC(C)CCc1c(O)cc(O)c2c1O[C@H](c1ccc(O)cc1)CC2=O [8-isopentylnaringenin]

Structure (SMILES): CC(C)=CCc1c(O)cc(O)c2c1O[C@H](c1ccc(O)cc1)CC2=O [8-prenylnaringenin]
- proliferation of MCF-7 breast cancer cells ([3]; increasing concentrations of 8-prenylnaringenin (1 nM, 10 nM, 100 nM), FIG. 2): increased proliferation
- oestrogenic activity [1]: activity greater than that of other established phyto-oestrogens
- oestrogenic activity in vivo [4]: high oestrogenic activity

Structure (SMILES): COc1cc(O)c(CC=C(C)C)c2c1C(=O)CC(c1ccc(O)cc1)O2 (stereo not shown) [isoxanthohumol]
- oestrogenic activity [1]: only weakly oestrogenic

Structure (SMILES): COc1cc(O)c(CC=C(C)C)c(O)c1C(=O)/C=C/c1ccc(O)cc1 [xanthohumol]
- xanthohumol to 8-prenylnaringenin weight ratio giving sufficient inhibition of proliferation ([3]; FIG. 2): at least 10
- concentrations of xanthohumol that significantly inhibit the proliferation induced by 8-prenylnaringenin ([3]; MCF-7 cells, 8-prenylnaringenin 1, 10, 100 nM): at least 5 μM
- concentrations of xanthohumol that stimulated the proliferation induced by 8-prenylnaringenin ([3]; MCF-7 cells, each concentration of 8-prenylnaringenin, ratio of xanthohumol to 8-prenylnaringenin below 10): < 1 µM
- oestrogenic activity of xanthohumol ([1]; no source stated): oestrogenically inactive
- prevention of carcinogen-induced preneoplastic lesions [5]: efficient at nanomolar concentrations
- inhibition of cyclooxygenase-1 activity (cyclooxygenase-1): inhibition
- inhibition of cyclooxygenase-2 activity (cyclooxygenase-2): inhibition
